{
  "source": "patent US7884067B2",
  "about": "“Peptides derived from cadherin and methods of use thereof” (Mount Sinai School of Medicine of New York University, priority 2001, dated 2011)",
  "molecules": {"B1": {"name": "N-Cad/CTF2: chicken cytoplasmic domain of N-cadherin (N-Cad/CTF2) inserted into vector pECE, expressed in L cells (protein)", "chain": "KRRDKERQAKQLLIDPEDDVRDNILKYDEEGGGEEDQDYDLSQLQQPDTVEPDAIKPVGIRRLDERPIHAEPQYPVRSAAPHPGDIGDFINEGLKAADNDPTAPPYDSLLVFDYEGSGSTAGSLSSLNSSSSGGEQDYDYLNDWGPRFKKLADMYGGGDD"}},
  "key": {"c-fos": {"test_system": "c-fos", "test": "c-fos mRNA (RT-PCR) and protein (Western blot) in N2a cells", "assay_type": "cell-based, mouse", "description": "Reverse Transcriptase (RT)-PCR Analysis. Total RNA was extracted from cells using a RNeasy Mini Kit (Qiagen) according to instructions by the manufacturer. Analysis of gene expression was performed using semiquantitative RT-PCR. The following primers were used: 5′-[…]-3′ (SEQ ID NO: 13) and 5′-[…]-3′ (SEQ ID NO: 14) for c-fos; 5′-[…]-3′ (SEQ ID NO: 15) and 5′-[…]-3′ (SEQ ID NO: 16) for gapdh.\nN2a cells co-transfected with plasmids pCRE-luc, pFC-PKA, and pSV-β-galactosidase were incubated for 16 hours with DMSO or with L-685,458 ([…]) and CRE-dependent transactivation was measured as described above. Data in FIG. 10A are the mean+/−s.e. of 3 experiments normalized to β-galactosidase activity and protein concentration. *, P<0.05 (Student's t test). Total RNA isolated from N2a cells treated either with DMSO or with L-685,458, was analyzed by semiquantitative RT-PCR using specific primers for c-fos and gapdh. The graph in FIG. 10B represents the relative abundance of c-fos-specific PCR products following quantitation of the mRNA signals shown in the upper panel. Extract from N2a cells treated either with DMSO or with L-685,458, were probed on WBs with anti-c-fos or anti-β-tubulin antibodies. Extract from PS1+/+ or PS1−/− mouse fibroblasts were probed on WBs with either anti-c-fos or anti-β-tubulin antibodies. Extract from PS1+/− or PS1−/− mouse embryonic brains were probed on WBs with anti-c-fos (FIG. 10E, upper panel), anti-b-tubulin (FIG. 10E, middle panel), or anti-PS1/CTF (FIG. 10E, lower panel) antibodies."}, "CBP": {"molecular_target": "T1, CBP (Mus musculus, UniProt P45481)", "T1 construct": "a process that relies on endogenous CBP and CREB; endogenous in cells; host or cells: L cells transfected with vector or pN-Cad/CTF2", "T1 sequence (P45481 whole entry)": "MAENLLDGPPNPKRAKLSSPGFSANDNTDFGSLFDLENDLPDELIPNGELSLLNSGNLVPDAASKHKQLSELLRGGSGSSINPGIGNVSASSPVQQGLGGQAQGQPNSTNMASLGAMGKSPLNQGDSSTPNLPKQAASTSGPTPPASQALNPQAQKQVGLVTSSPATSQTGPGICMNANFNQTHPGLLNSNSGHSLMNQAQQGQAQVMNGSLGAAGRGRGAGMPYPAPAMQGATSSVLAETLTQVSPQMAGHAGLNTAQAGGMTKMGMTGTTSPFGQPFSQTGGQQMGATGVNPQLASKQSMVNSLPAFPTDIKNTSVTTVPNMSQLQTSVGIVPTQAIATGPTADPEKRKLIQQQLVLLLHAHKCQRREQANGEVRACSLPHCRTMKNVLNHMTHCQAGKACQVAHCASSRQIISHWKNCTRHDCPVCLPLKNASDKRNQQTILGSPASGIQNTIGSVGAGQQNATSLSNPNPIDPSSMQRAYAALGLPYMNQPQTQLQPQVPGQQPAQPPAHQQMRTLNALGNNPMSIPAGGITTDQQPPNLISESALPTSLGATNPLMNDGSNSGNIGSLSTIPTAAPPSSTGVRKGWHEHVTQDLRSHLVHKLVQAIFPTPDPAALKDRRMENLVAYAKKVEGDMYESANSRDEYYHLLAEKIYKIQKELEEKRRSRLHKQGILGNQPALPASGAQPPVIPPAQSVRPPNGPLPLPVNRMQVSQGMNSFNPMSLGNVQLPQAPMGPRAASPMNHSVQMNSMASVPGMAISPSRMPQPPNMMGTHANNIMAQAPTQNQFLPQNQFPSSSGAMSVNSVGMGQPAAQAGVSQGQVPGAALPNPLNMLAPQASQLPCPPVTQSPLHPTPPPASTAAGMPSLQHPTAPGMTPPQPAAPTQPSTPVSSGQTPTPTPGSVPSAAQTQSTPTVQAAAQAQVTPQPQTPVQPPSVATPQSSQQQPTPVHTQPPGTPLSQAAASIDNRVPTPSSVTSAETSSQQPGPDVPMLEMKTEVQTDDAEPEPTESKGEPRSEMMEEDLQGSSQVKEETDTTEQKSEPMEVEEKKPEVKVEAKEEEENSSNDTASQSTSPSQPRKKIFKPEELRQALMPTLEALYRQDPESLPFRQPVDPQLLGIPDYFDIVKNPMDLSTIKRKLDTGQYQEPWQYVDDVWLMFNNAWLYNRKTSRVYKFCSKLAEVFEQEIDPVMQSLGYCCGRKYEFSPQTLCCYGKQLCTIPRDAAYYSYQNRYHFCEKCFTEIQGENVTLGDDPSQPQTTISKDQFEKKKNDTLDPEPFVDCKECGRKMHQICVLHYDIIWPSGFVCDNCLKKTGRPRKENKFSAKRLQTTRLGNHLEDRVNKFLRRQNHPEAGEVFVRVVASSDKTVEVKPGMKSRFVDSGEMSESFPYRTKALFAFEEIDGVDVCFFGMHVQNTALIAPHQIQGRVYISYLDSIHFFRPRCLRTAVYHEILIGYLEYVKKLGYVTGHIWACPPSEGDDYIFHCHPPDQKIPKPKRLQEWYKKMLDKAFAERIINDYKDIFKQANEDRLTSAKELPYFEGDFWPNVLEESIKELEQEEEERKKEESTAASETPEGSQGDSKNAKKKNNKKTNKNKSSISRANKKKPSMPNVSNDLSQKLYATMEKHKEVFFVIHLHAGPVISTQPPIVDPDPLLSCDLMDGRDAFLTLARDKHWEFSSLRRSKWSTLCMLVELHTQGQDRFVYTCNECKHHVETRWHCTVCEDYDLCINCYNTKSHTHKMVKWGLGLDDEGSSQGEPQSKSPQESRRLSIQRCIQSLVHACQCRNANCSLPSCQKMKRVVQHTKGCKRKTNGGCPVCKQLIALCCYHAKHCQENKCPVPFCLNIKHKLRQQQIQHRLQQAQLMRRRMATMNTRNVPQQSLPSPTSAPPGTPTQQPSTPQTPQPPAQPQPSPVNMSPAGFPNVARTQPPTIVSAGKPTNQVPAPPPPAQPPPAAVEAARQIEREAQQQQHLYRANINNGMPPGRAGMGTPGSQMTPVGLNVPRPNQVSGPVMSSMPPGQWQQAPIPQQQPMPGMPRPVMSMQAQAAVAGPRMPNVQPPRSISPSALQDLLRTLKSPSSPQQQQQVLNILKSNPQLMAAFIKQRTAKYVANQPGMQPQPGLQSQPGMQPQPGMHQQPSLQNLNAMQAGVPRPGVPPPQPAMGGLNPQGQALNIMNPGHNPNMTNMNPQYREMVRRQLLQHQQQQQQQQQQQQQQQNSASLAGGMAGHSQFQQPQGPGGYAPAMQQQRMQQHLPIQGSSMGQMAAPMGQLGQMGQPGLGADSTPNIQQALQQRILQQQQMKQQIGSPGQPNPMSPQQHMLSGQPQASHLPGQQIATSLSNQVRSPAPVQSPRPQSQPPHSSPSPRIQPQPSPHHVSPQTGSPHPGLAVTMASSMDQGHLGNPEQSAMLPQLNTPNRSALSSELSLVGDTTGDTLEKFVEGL", "test": "Immunofluorescence staining of pN-Cad/CTF2-transfected L cells", "assay_type": "cell-based", "conditions": "compared to non-transfected controls", "description": "Immunoprecipitations (IPs), immunoblotting and immunofluorescence. IPs were performed as described by Marambaud et al. (2002) EMBO J. 21: 1948-1956 in 4° C. HEPES buffer (25 mM HEPES, pH 7.4, 150 mM NaCl, 1× Complete protease inhibitor cocktail, Roche) containing 0.5% Nonidet P40 (NP40). For western blot (WB) analysis, cells were solubilized in 4° C. RIPA buffer (50 mM Tris-HCl, pH 8, 150 mM NaCl, 0.1% SDS, 1% NP-40, 0.5% sodium deoxycholate, 1× Complete protease inhibitor cocktail) as described by Marambaud et al. (2002). Immunofluorescence was performed as described by Georgakopoulos et al. (1999) with the following modifications: to visualize nuclei, cells were treated for 5 minutes with 4′,6-diamidino-2-phenylndole (DAPI, 1:5000; Sigma). Fluorescence microscopy and digital image acquisition were carried out using an Axioskop2 microscope (Zeizz).\nTo determine how N-Cad/CTF2 affects CREB-mediated transcription, the following experiments were performed. L cells transfected either with vector (vector) or pN-Cad/CTF2 (N-Cad/CTF2) plasmids were fractionated into nuclear and cytosolic fractions, and probed on WBs with anti-CBP (FIG. 11A, panel a), anti-N-cadherin (FIG. 11A, panel b), anti-β-tubulin (FIG. 11A, panel c) or anti-phosphorylated CREB (P-CREB; FIG. 11A, panel d) antibodies. […] L cells transiently transfected with pN-Cad/CTF2 were analyzed by immunofluorescence staining. […]"}},
  "data": [
    {"molecule": "CC(C)C[C@H](NC(=O)[C@H](Cc1ccccc1)C[C@@H](O)[C@H](Cc1ccccc1)NC(=O)OC(C)(C)C)C(=O)N[C@@H](Cc1ccccc1)C(N)=O", "note": "[L-685,458]", "values": [
      {"measurement": "gapdh mRNA and β-tubulin", "setting": "c-fos; L-685,458, FIGS. 10B and 10C", "result": "remained unchanged"},
      {"measurement": "c-fos mRNA", "setting": "c-fos; L-685,458 vs untreated controls, FIG. 10B", "result": "stimulated"},
      {"measurement": "c-fos protein", "setting": "c-fos; L-685,458 vs untreated controls, FIG. 10C", "result": "stimulated"}
    ]},
    {"molecule": "B1", "values": [
      {"measurement": "cytoplasmic staining for N-Cad/CTF2 and CBP", "setting": "CBP", "result": "clear cytoplasmic staining for both N-Cad/CTF2 and CBP"}
    ]}
  ]
}
